Source: patent US11834640B2, “Device and uses thereof for treating diabetes” (Board of Regents, The University of Texas System, priority 2019, dated 2023)

Legend:
Format in all cases: cell-based, mouse
βTC-6 insulinoma cells = test: Intracellular calcium rise (Fluo-8) after electric field exposure, blocking experiment; conditions: verapamil 100 μM, incubated 30 minutes before 3 V/cm EF for 15 min, HBSS
Procedure: Calcium labeling and depletion. Samples were washed with HBSS (Sigma) and incubated with 0.8 μM Fluo-8 (Abcam) for 30 minutes. NucBlue solution (Thermo) was added for 15 min in accordance to the manufacturer's recommended concentration to stain the nuclei. Cells were washed again and mounted onto the chamber. Changes in the Fluo-8 fluorescent intensity were monitored and recorded. Fluorescent images were acquired for 2 min at 5 s intervals with a 250 ms exposure time before and after the DCEF was applied. Image analysis was performed using the Nikon Elements image processor by identifying a ROI selection on selected nuclei with mean intensity of Fluo-8 over time. […]
Calcium Fluorescent Microscopy. […] Measurements for calcium rise recorded a single static image before and after EF exposure, while calcium spiking was recorded over 2 minutes before and after EFS with a 5 second sampling interval.
Calcium Image Analysis. For calcium rise, the mean intensity of clusters in the sample were measured at 0 minute (Pre) and 15 minute (Post) time points using Nikon Elements. Background subtraction was then performed and the percent change was determined by comparing the post-exposure to the pre-exposure mean intensities. […] The mean intensity over time was measured for both the pre and post imaging sessions. […]

βTC-6 cells [1] = test: Calcium spiking frequency (Fluo-8) after 810 nm PBM exposure, pharmacologic studies
Procedure: Cell Culture. […] Cell passage was performed weekly with 0.25% Trypsin-EDTA. Samples were prepared by seeding βTC-6 cells on glass coverslips in low glucose media. These samples were used for experimentation between days 2 through 5. All cells were incubated at 37° C. in a 5% CO2 environment.
(§1) PBM Parameters. A Cytonsys (Austin, TX) 810 nm near-infrared laser was used to perform all experimentation. […] Herein, all βTC-6 samples were exposed to 810 nm for 1 minute with an irradiance of 150 mW/cm^2, resulting in a fluence of 9 J/cm^2. To measure the bulk temperature rise that was due to laser exposure, an Omega HH42A thermistor was used before and after irradiation.
(§2) Live Cell Imaging. For calcium and mitochondrial superoxide (mROS) detection, the cells were stained with Fluo-8 (0.8 μM, Abcam, Cambridge, UK), Mitosox (5 μM, Thermo-Fisher, Waltham, MA) and 1 drop/mL of Nucblue (Thermo-Fisher, Waltham, MA) for detection of intracellular calcium, mROS, and nucleic acid, respectively. The fluorescent dye DAF-FM (5 μM, Thermo-Fisher) was used to detect and measure cytosolic nitric oxide (NO). Hanks balanced salt solution (HBSS) was used (H8264, Sigma, St. Louis, MO) unless stated otherwise. Samples were stained at 37° C. for 30 minutes before being washed and mounted onto the imaging chamber.
Calcium Activity Analysis. Regions of interest (ROIs) were placed on individual cells using the nucleic acid staining and transferred to perform and calculate mean fluorescent intensity over time with background subtraction. Approximately 100 to 200 cells were monitored for each data point, and the results were averaged. A conservative moving average threshold (10 data points) with a 10% cutoff was used to determine a calcium spike. […] The active population was defined by the total number of active cells divided by the number of cells analyzed. The average spiking frequency of these active cells was then determined at each time point. Measurements were taken using Nikon Elements software and data analysis was carried out using Microsoft Excel. […]

βTC-6 cells [2] = test: Mitochondrial superoxide (MitoSOX intensity) after 810 nm PBM exposure; conditions: ascorbic acid 2.5 mM, 9 J/cm^2
Procedure: as §1, with “experimentation. […] The energy density of 9 J/cm^2 was previously shown to have therapeutic effects on hepatic tissue in a diabetic state.” for “experimentation.”
as §2
Pharmacologic Studies. All drugs were added to the staining buffer. Samples were treated with each drug for 30 minutes before imaging. For L-type VGCC blocking, Verapamil (100 μM, V4629, Sigma) was applied. Capsazepine (10 μM, C191, Sigma) was added as a TRPV1 antagonist. […]

SMILES: COc1ccc(CCN(C)CCCC(C#N)(c2ccc(OC)c(OC)c2)C(C)C)cc1OC (centres unmarked) [Verapamil]
- increase in intracellular calcium level in response to EF (βTC-6 insulinoma cells): effectively blocked the increase in intracellular calcium level

SMILES: O=C1CN(/N=C/c2ccc(-c3ccc([N+](=O)[O-])cc3)o2)C(O)=N1 [dantrolene, Dantrolene]
- calcium spiking frequency following PBM, versus control (βTC-6 cells [1]; dantrolene 50 μM, 30 minutes, 9 J/cm^2, difference only noticeable at the 15-minute mark): decreased in comparison to the control

SMILES: NCCOB(c1ccccc1)c1ccccc1 [2-APB]
- calcium spiking frequency following PBM (βTC-6 cells [1]; 2-APB 10 μM (FIG. 10B legend 20 μM), 30 minutes, 9 J/cm^2): significantly impede such an increase in the calcium spiking frequency by PBM

SMILES: O=C1O[C@H]([C@@H](O)CO)C(O)=C1O [ascorbic acid, Ascorbic Acid]
- calcium spiking frequency of active cells following PBM, AA-treated versus control (βTC-6 cells [1]; ascorbic acid 2.5 mM, 9 J/cm^2): no significant difference in the calcium spiking frequency analysis between the AA-treated and control cells until the 10-minute time point
- MitoSOX intensity following PBM (superoxide) (βTC-6 cells [2]): significant reduction in the MitoSOX intensity
